Tested on: 422866-222-R5-J1-PDC spheroids with HUVEC/MSC, viability
Assay: Anticancer human tumor 422866-222-R5-J1-PDC patient-derived pancreatic adenocarcinoma cell line growth inhibition [GQUAD]
Details: for IC50: curve of first compound; for viability, T/C: stronger effect = lower value
How it was run: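 Tumor cells were grown as complex spheroids with HUVEC endothelial cells and mesenchymal stem cells as stroma. G-quadruplex stabilizers were combined with targeted agents over half-log dilutions from near the clinical Cmax, or from 10 microM.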

[1] = second compound 0.0316 µM, first compound 0.0316 µM
[2] = second compound 0.0316 µM, first compound 0.1 µM
[3] = second compound 0.0316 µM, first compound 0.316 µM
[4] = second compound 0.0316 µM, first compound 1 µM
[5] = second compound 0.0316 µM, first compound 3.16 µM
[6] = second compound 0.0316 µM, first compound 10 µM
[7] = second compound 0.1 µM, first compound 0.0316 µM
[8] = second compound 0.1 µM, first compound 0.1 µM
[9] = second compound 0.1 µM, first compound 0.316 µM
[10] = second compound 0.1 µM, first compound 1 µM
[11] = second compound 0.1 µM, first compound 3.16 µM
[12] = second compound 0.1 µM, first compound 10 µM
[13] = second compound 0.316 µM, first compound 0.0316 µM
[14] = second compound 0.316 µM, first compound 0.1 µM
[15] = second compound 0.316 µM, first compound 0.316 µM
[16] = second compound 0.316 µM, first compound 1 µM
[17] = second compound 0.316 µM, first compound 3.16 µM
[18] = second compound 0.316 µM, first compound 10 µM
[19] = second compound 1 µM, first compound 0.0316 µM
[20] = second compound 1 µM, first compound 0.1 µM
[21] = second compound 1 µM, first compound 0.316 µM
[22] = second compound 1 µM, first compound 1 µM
[23] = second compound 1 µM, first compound 3.16 µM
[24] = second compound 1 µM, first compound 10 µM
[25] = second compound 3.16 µM, first compound 0.0316 µM
[26] = second compound 3.16 µM, first compound 0.1 µM
[27] = second compound 3.16 µM, first compound 0.316 µM
[28] = second compound 3.16 µM, first compound 1 µM
[29] = second compound 3.16 µM, first compound 3.16 µM
[30] = second compound 3.16 µM, first compound 10 µM
[31] = second compound 10 µM, first compound 0.0316 µM
[32] = second compound 10 µM, first compound 0.1 µM
[33] = second compound 10 µM, first compound 0.316 µM
[34] = second compound 10 µM, first compound 1 µM
[35] = second compound 10 µM, first compound 3.16 µM
[36] = second compound 10 µM, first compound 10 µM
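Also: spheroids exposed to compounds for seven days before reading.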
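For viability, T/C in this document: percent viability relative to DMSO vehicle control taken as 100%.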

## C=CCn1c(=O)c2cnc(Nc3ccc(N4CCN(C)CC4)cc3)nc2n1-c1cccc(C(C)(C)O)n1 + Cc1cnc(CNC(=O)c2c(=O)c3ccc(N4CCCN(C)CC4)nc3n3c2sc2ccccc23)cn1
Second compound 0.0316 µM
  IC50: 310 nM
Second compound 0.1 µM
  IC50: 545 nM
Second compound 0.316 µM
  IC50: 1320 nM
Second compound 1 µM
  IC50: 2270 nM
Second compound 3.16 µM
  IC50: 3240 nM
Second compound 10 µM
  IC50: 2780 nM
[1]
  viability, T/C: 86.8%
[2]
  viability, T/C: 70%
[3]
  viability, T/C: 51.6%
[4]
  viability, T/C: 35.2%
[5]
  viability, T/C: 29.1%
[6]
  viability, T/C: 34.2%
[7]
  viability, T/C: 89.2%
[8]
  viability, T/C: 71.9%
[9]
  viability, T/C: 54.1%
[10]
  viability, T/C: 45.5%
[11]
  viability, T/C: 38.5%
[12]
  viability, T/C: 36.7%
[13]
  viability, T/C: 85%
[14]
  viability, T/C: 80.2%
[15]
  viability, T/C: 63.5%
[16]
  viability, T/C: 52.4%
[17]
  viability, T/C: 43.6%
[18]
  viability, T/C: 34.2%
[19]
  viability, T/C: 74.7%
[20]
  viability, T/C: 74.2%
[21]
  viability, T/C: 64.8%
[22]
  viability, T/C: 57.3%
[23]
  viability, T/C: 46.2%
[24]
  viability, T/C: 44.8%
[25]
  viability, T/C: 82.8%
[26]
  viability, T/C: 64.5%
[27]
  viability, T/C: 65.5%
[28]
  viability, T/C: 62.4%
[29]
  viability, T/C: 51.4%
[30]
  viability, T/C: 39.6%
[31]
  viability, T/C: 72.9%
[32]
  viability, T/C: 73.4%
[33]
  viability, T/C: 70.8%
[34]
  viability, T/C: 60.8%
[35]
  viability, T/C: 49%
[36]
  viability, T/C: 42.3%

## CC1COCCN1c1cc(-c2ccnn2C)c2ccnc(-c3ccn[nH]3)c2n1 (stereo unspecified) + CN(C)c1ccc(Nc2c3ccc(NC(=O)CCN4CCCC4)cc3nc3cc(NC(=O)CCN4CCCC4)ccc23)cc1
Second compound 0.0316 µM
  IC50: > 10000 nM
Second compound 0.1 µM
  IC50: > 10000 nM
Second compound 0.316 µM
  IC50: > 10000 nM
Second compound 1 µM
  IC50: 31.6 nM
Second compound 3.16 µM
  IC50: 31.6 nM
Second compound 10 µM
  IC50: 31.6 nM
[1]
  viability, T/C: 88.7%
[2]
  viability, T/C: 60.3%
[3]
  viability, T/C: 53.2%
[4]
  viability, T/C: 46.5%
[5]
  viability, T/C: 73.2%
[6]
  viability, T/C: 92.6%
[7]
  viability, T/C: 92.4%
[8]
  viability, T/C: 62.7%
[9]
  viability, T/C: 46.2%
[10]
  viability, T/C: 36.2%
[11]
  viability, T/C: 86.8%
[12]
  viability, T/C: 84.2%
[13]
  viability, T/C: 86.8%
[14]
  viability, T/C: 70.2%
[15]
  viability, T/C: 46.7%
[16]
  viability, T/C: 39.4%
[17]
  viability, T/C: 86.9%
[18]
  viability, T/C: 89.3%
[19]
  viability, T/C: 73%
[20]
  viability, T/C: 52%
[21]
  viability, T/C: 37.2%
[22]
  viability, T/C: 39.2%
[23]
  viability, T/C: 91.2%
[24]
  viability, T/C: 71.5%
[25]
  viability, T/C: 79%
[26]
  viability, T/C: 54.8%
[27]
  viability, T/C: 38%
[28]
  viability, T/C: 39.7%
[29]
  viability, T/C: 81.2%
[30]
  viability, T/C: 94.6%
[31]
  viability, T/C: 76.8%
[32]
  viability, T/C: 52.7%
[33]
  viability, T/C: 40.2%
[34]
  viability, T/C: 41.4%
[35]
  viability, T/C: 83.9%
[36]
  viability, T/C: 83.8%

## CCc1c2c(nc3ccc(O)cc13)-c1cc3c(c(=O)n1C2)COC(=O)[C@]3(O)CC + CN(C)c1ccc(Nc2c3ccc(NC(=O)CCN4CCCC4)cc3nc3cc(NC(=O)CCN4CCCC4)ccc23)cc1
Second compound 0.0316 µM
  IC50: 6.8 nM
Second compound 0.1 µM
  IC50: 49 nM
Second compound 0.316 µM
  IC50: 2.86 nM
Second compound 1 µM
  IC50: 2.41 nM
Second compound 3.16 µM
  IC50: 110 nM
Second compound 10 µM
  IC50: > 316 nM
Second compound 0.0316 µM, first compound 0.000999 µM
  viability, T/C: 64.9%
Second compound 0.0316 µM, first compound 0.00316 µM
  viability, T/C: 54.1%
Second compound 0.0316 µM, first compound 0.00999 µM
  viability, T/C: 46.6%
[1]
  viability, T/C: 46.7%
Second compound 0.0316 µM, first compound 0.0999 µM
  viability, T/C: 48%
[3]
  viability, T/C: 47.1%
Second compound 0.1 µM, first compound 0.000999 µM
  viability, T/C: 63.6%
Second compound 0.1 µM, first compound 0.00316 µM
  viability, T/C: 46.9%
Second compound 0.1 µM, first compound 0.00999 µM
  viability, T/C: 46.7%
[7]
  viability, T/C: 57.1%
Second compound 0.1 µM, first compound 0.0999 µM
  viability, T/C: 57.8%
[9]
  viability, T/C: 39.2%
Second compound 0.316 µM, first compound 0.000999 µM
  viability, T/C: 77.5%
Second compound 0.316 µM, first compound 0.00316 µM
  viability, T/C: 47.2%
Second compound 0.316 µM, first compound 0.00999 µM
  viability, T/C: 46.4%
[13]
  viability, T/C: 55.1%
Second compound 0.316 µM, first compound 0.0999 µM
  viability, T/C: 50.5%
[15]
  viability, T/C: 37.3%
Second compound 1 µM, first compound 0.000999 µM
  viability, T/C: 54%
Second compound 1 µM, first compound 0.00316 µM
  viability, T/C: 43.4%
Second compound 1 µM, first compound 0.00999 µM
  viability, T/C: 45.2%
[19]
  viability, T/C: 57.1%
Second compound 1 µM, first compound 0.0999 µM
  viability, T/C: 46.8%
[21]
  viability, T/C: 40.5%
Second compound 3.16 µM, first compound 0.000999 µM
  viability, T/C: 58.6%
Second compound 3.16 µM, first compound 0.00316 µM
  viability, T/C: 54.3%
Second compound 3.16 µM, first compound 0.00999 µM
  viability, T/C: 40.6%
[25]
  viability, T/C: 48.5%
Second compound 3.16 µM, first compound 0.0999 µM
  viability, T/C: 63.6%
[27]
  viability, T/C: 43.9%
Second compound 10 µM, first compound 0.000999 µM
  viability, T/C: 58.4%
Second compound 10 µM, first compound 0.00316 µM
  viability, T/C: 49.7%
Second compound 10 µM, first compound 0.00999 µM
  viability, T/C: 58.3%
[31]
  viability, T/C: 50.8%
Second compound 10 µM, first compound 0.0999 µM
  viability, T/C: 64.5%
[33]
  viability, T/C: 41%
